According to BindingDB's records for doi:10.1016/j.bioorg.2017.03.015 (Silesian University of Technology, 2017):

Target: T1, Beta-1,4-galactosyltransferase 1 (Bos taurus, UniProt P08037)
T1 sequence (P08037 whole entry): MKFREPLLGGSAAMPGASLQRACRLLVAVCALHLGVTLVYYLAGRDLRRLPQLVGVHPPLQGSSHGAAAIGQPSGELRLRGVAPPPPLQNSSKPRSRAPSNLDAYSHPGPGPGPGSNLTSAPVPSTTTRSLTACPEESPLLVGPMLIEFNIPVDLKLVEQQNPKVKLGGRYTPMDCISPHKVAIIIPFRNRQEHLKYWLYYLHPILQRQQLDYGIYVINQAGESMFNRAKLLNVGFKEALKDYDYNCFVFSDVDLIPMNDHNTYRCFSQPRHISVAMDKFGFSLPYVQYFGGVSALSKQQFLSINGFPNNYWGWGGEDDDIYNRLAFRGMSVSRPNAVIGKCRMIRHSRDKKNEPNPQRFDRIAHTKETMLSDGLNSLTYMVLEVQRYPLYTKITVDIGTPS
Test: β-1,4-Galactosyltransferase I Assay
Conditions: pH 5.4; 30 °C
Method: β4GalT activity was assayed using UDP-Gal as glycosyl donor and (6-esculetinyl) β-D-glucopyranoside (esculine) as glycosyl acceptor. Assays were performed in a total volume of 200 μL. The reaction mixtures contained reagents in the following final concentrations: 50 mM Hepes buffer (pH 5.4), 10 mM MnCl2, 2.0 mg/mL BSA, 200 μM esculine, 40 μM UDP-Gal, 10 μL MeOH and potential inhibitors 1-6 at 0.8 mM concentration. The enzymatic reactions were initiated by the addition of 1 mU β4GalT and incubated at 30 °C for 60 min. Inactivation was quickly done by placing of the reaction solutions for 3 min in a thermo block set to 90 °C. Thesolutions were diluted with water (300 μL) and centrifuged for 20 min, filtered through M.E. Cellulose filter (0.2 μm × 13 mm) and the filtrate was injected into RP-HPLC system.

- IC50: 720 µM
SMILES: O=c1ccn([C@@H]2O[C@H](Cn3cc(CO[C@@H]4OC(CO)[C@@H](O)C(O)C4O)nn3)C(O)C2O)c(=O)[nH]1 (stereo partly drawn) [5'-deoxy-5'-[4-(β-D-glucopyranosyloxymethyl)-1,2-3-triazol-1-yl]uridine (5)]
